In patent US20040200144A1, “Plant growth regulator and a method of producing the regulator” (Dainichiseika Color & Chemicals Mfg. Co., Ltd., priority 2003, published 2004):

What was measured:
Assay type in all cases: in vivo
squash young plants = assay: Dwarfing test of squash young plant; settings: for Plant Height / Dwarfing Rate: 5 ml per cell on 7th day, measured 20th day; for Dwarfing Rate: vs comparative group
Protocol: After seeding, the pot was placed in the same greenhouse as described above to sprout. Subsequently, on the 5th day, the cinnamic aqueous acid solutions were added to the nursery soil in the joint pots. One of the joint pots (24 cells) was prepared as a 0.05% cinnamic acid aqueous solution addition group, and 5 ml of the 0.05% cinnamic acid aqueous solution was added to the nursery soil of each cell. Another one of the join pots was prepared as a 0.2% cinnamic acid aqueous solution addition group, and 5 ml of the 0.2% cinnamic acid aqueous solution was added to the nursery soil of each cell. […] Subsequently, the cultivation of carrot young plants in each group was continued under general conditions. On the 27th day, the heights of young plants in each group were measured, the dwarfing rate (%) was calculated, and the dwarfing effect of cinnamic acid aqueous solution on carrot young plants was examined. From the results in Table 5, it became evident that the 0.05% and 0.2% cinnamic acid aqueous solutions are effective in dwarfing carrot young plants. In the same way as in Example 5 except that seeds of cauliflower were sowed, the cinnamic acid solutions were added to the nursery soil in the joint pot on the 4th day, and that heights of young plants in each group were measured on the 20th day, the dwarfing effect of cinnamic acid aqueous solution on cauliflower young plants was examined. From the results in Table 12, it became evident that the cinnamic acid aqueous solutions are effective in dwarfing cauliflower young plants. In the same way as in Example 12 except that seeds of tomato were sowed, and that the cinnamic acid solutions were added to the nursery soil of the joint pot on the 7th day, the dwarfing effect of cinnamic acid aqueous solution on tomato young plants was examined. From the results in Table 17, it became evident that the cinnamic acid aqueous solutions are effective in dwarfing tomato young plants. In the same way as in Example 17 except that seeds of squash were sowed, the dwarfing effect of cinnamic acid aqueous solution on squash young plants was examined. From the results in Table 20, it became evident that the cinnamic acid aqueous solutions are effective in dwarfing squash young plants.

field peas young plants = assay: Dwarfing test of field peas young plant; settings: for Plant Height / Dwarfing Rate: measured 24th day; for Dwarfing Rate: vs comparative group
Protocol: (§1) 18.4 g of potassium hydroxide was dissolved in 400 ml of distilled water at 20° C., 50 g of cinnamic acid was added to the potassium hydroxide solution and dissolved by stirring, the resultant solution was diluted with distilled water until the total volume of solution was 500 ml, and thus 10% cinnamic acid aqueous solution (pH 8.8) was prepared. The aqueous solution was further diluted with distilled water 100 times or 33.3 times, and 0.1% cinnamic acid aqueous solution and 0.3% cinnamic acid aqueous solution were prepared, respectively.
Nursery soil for house use was filled into paper joint pots (each with 24 cells: 34×43×50 mm/cell), water was sufficiently given to the soil, and seeds of carrots were sowed. After seeding, the pot was placed in the same greenhouse as described above to sprout. Subsequently, on the 5th day, the cinnamic aqueous acid solutions were added to the nursery soil in the joint pots. One of the joint pots (24 cells) was prepared as a 0.05% cinnamic acid aqueous solution addition group, and 5 ml of the 0.05% cinnamic acid aqueous solution was added to the nursery soil of each cell. Another one of the join pots was prepared as a 0.2% cinnamic acid aqueous solution addition group, and 5 ml of the 0.2% cinnamic acid aqueous solution was added to the nursery soil of each cell. The other one of the joint pots was prepared as a comparative group in which 5 ml of water is added to each cell, instead of the cinnamic acid aqueous solution. Subsequently, the cultivation of carrot young plants in each group was continued under general conditions. On the 27th day, the heights of young plants in each group were measured, the dwarfing rate (%) was calculated, and the dwarfing effect of cinnamic acid aqueous solution on carrot young plants was examined. […].
In the same way as in Example 5 except that seeds of field peas were sowed, 0.1% and 0.3% cinnamic acid solutions in example 3 were added to the nursery soil in the joint pot, and that heights of young plants in each group were measured on the 24th day, the dwarfing effect of cinnamic acid aqueous solution on field peas young plants was examined. […]

[1] = test system: Chinese cabbage young plants; assay: Dwarfing test of Chinese cabbage young plant; settings: for Plant Height / Dwarfing Rate: 5 ml per cell on 4th day, measured 22nd day; for Dwarfing Rate: vs comparative group
Protocol: Dwarfing rate (%)=[(the plant height of the comparative group)−(the plant height of an addition group)/the plant height of the comparative group]×100
as §1
Nursery soil for house use was filled into a polyethylene joint pot (36 cells: 45×45×30 mm/cell), water was sufficiently given to the soil, and seeds of Chinese cabbage were sowed. After seeding, the pot was placed in the same greenhouse as described above to sprout. Subsequently, on the 4th day, the cinnamic aqueous acid solutions were added to the nursery soil in the joint pot.
Among 36 cells, 12 cells were prepared as a 0.1% cinnamic acid aqueous solution addition group, and 5 ml of the 0.1% cinnamic acid aqueous solution was added to the nursery soil of each cell. Another 12 cells were prepared as a 0.3% cinnamic acid aqueous solution addition group, and 5 ml of the 0.3% cinnamic acid aqueous solution was added to the nursery soil of each cell. Remaining 12 cells were prepared as a comparative group in which 5 ml of water is added to each cell, instead of the cinnamic acid aqueous solution. Subsequently, the cultivation of Chinese cabbage young plants in each group was continued under general conditions. On the 22nd day, the heights of young plants in each group were measured, the dwarfing rate (%) was calculated, and the dwarfing effect of cinnamic acid aqueous solution on Chinese cabbage young plants was examined. […]

[2] = 0.1% aqueous solution of Example 3, 5 ml per cell on 5th day
[3] = 0.3% aqueous solution of Example 3, 5 ml per cell on 5th day

## O=C(O)C=Cc1ccccc1 [cinnamic acid]
Squash young plants; 0.05% aqueous solution
  Plant Height: 6.3 cm
  Dwarfing Rate: 27.6%
Squash young plants; 0.2% aqueous solution
  Plant Height: 4.3 cm
  Dwarfing Rate: 50.6%
Squash young plants; squash young plants, 0.05% and 0.2% aqueous solutions
  dwarfing effect: effective
Field peas young plants; [2]
  Plant Height: 24.3 cm
  Dwarfing Rate: 19.5%
Field peas young plants; [3]
  Plant Height: 18.1 cm
  Dwarfing Rate: 40.1%
Field peas young plants; field peas young plants, 0.1% and 0.3% aqueous solutions
  dwarfing effect: effective
[1]; 0.1% aqueous solution
  Plant Height: 7.0 cm
  Dwarfing Rate: 23.9%
[1]; 0.3% aqueous solution
  Plant Height: 6.9 cm
  Dwarfing Rate: 25.0%
[1]; Chinese cabbage young plants, 0.1% and 0.3% aqueous solutions
  dwarfing effect: effective
